# Measured values: US20110319485A1, “Composition Having Anti-Helicobacter Pylori Activity And Its Application To Inhibit Helicobacter Pylori” (Yushen Biotechnology & Medical Co, Ltd., priority 2010, published 2011)
# Read-outs that look alike come from different tables or passages of the source. Marks after values point to notes of the source that are not given here.
# Tests used:
# [1] = test system: Helicobacter pylori BCRC 17027 strain; experiment: Minimum inhibitory concentration (MIC), agar-dilution method; assay type: cell-based; details: BCRC17027, agar dilution assay, TSA with 5% sheep blood, 72 hours, 37° C.
# Description: H. pylori BCRC 17027 was obtained from the Bioresources Collection and Research Center (BCRC), Hsinchu, Taiwan, ROC. The H. pylori strain was cultured in 5 mL tryptic soy broth (TSB, each liter containing: 17 g peptone from casein, 3 g peptone from soymeal, 2.5 g dextrose, 5 g sodium chloride, 2.5 g dipotassium phosphate, pH 7.3) with a tryptic soy agar (TSA, each liter containing: 15 g peptone from casein, 5 g peptone from soymeal, 5 g sodium chloride, 15 g agar, pH 7.3) and slant containing 5% (v/v) of defibrinated sheep blood formed at the bottom of the test tube.
# The broth was incubated in a microaerophilic jar system (BBL), featuring a gas composition of 5% O2, 10% CO2 and 85% N2 (BD GasPak™ EZ Gas Generating systems), at 37° C. for 72 hours. The cell suspension was then diluted with TSB to provide a cell concentration of 3×10^8 CFUs/mL for antimicrobial testing.
# The MIC of the purified substance was determined by the agar-dilution method (Shungu et al., 1987, Antimicrob Agents Chemother, 31: 949-950). A volume of 40 μL of cell suspension (initial bacterial count 3×10^8 CFUs/mL) was spread onto the TSA agar plates containing 5% (v/v) defibrinated sheep blood. […] DMSO was used as control. Metronidazole (MTZ) and clarithromycin (CLA) were co-assayed as the positive reference at concentrations of 8.0-128.0 μg/mL and 0.008-0.128 μg/mL, respectively. Following incubation in a microaerophilic jar system, featuring a gas composition of 5% O2, 10% CO2 and 85% N2, at 37° C. for 72 hours, the colonies that had formed on the plates were enumerated. The MIC was defined as the minimum concentration of the test sample (antibacterial agent) in a given culture medium on which bacteria are not able to form colonies.
# [2] = test system: Helicobacter pylori BCRC 17027 strain; experiment: Minimum bactericidal concentration (MBC), broth dilution; assay type: cell-based; details: broth dilution assay, 1 hour exposure in Brucella broth, then plated 72 hours, means of three experiments
# Helicobacter pylori = details: A Vasquez et al., 1996; cited from earlier work
# H. pylori BCRC 17027 = experiment: Inhibitory-zone measurement (agar well diffusion assay); assay type: cell-based, Helicobacter pylori; details: for zone of inhibition at 40000 µg/mL: Helicobacter pylori, BCRC17027, 72 h, read-out: The diameter of inhibitory-zone
# Description: H. pylori BCRC 17027 was obtained from the Bioresources Collection and Research Center (BCRC), Hsinchu, Taiwan, ROC. […] The cell suspension was then diluted with TSB to provide a cell concentration of 3×10^8 CFUs/mL for antimicrobial testing. An agar well diffusion assay was used to determine if H. pylori was susceptible to the anti-bacterial activity of the various fractions and isolates (al Somal et al., 1994, J R Soc Med, 87: 9-12). A volume of 100 μL for each of the bacterial suspensions tested (3×10^8 CFUs/mL) was spread onto the TSA agar plate containing 5% (v/v) defibrinated sheep blood. Wells sized 7 mm in diameter were punched on the plates with 5 μL of the Fr1-Fr5 and ovatodiolide (40 mg/mL; DMSO as solvent) to be individually incorporated into the wells. DMSO was used as negative control and metronidazole (MTZ, 40 mg/mL) was used as positive control.
# [3] = Helicobacter pylori, BCRC17027, read-out: MBC
# [4] = 5 μL of 40 mg/mL in DMSO per 7 mm well (200 μg/disk), 72 hours, 37° C., microaerophilic, mean±S.D.
Structure (SMILES),MIC [1] [µg/mL],"MBC [2, 3] [µg/mL]",minimum inhibitory concentration of known antibiotics (Helicobacter pylori) [µg/mL],zone of inhibition at 40000 µg/mL (H. pylori BCRC 17027; [4]) [mm],Anti-Helicobacter pylori activity in inhibitory-zone assay (in words) (H. pylori BCRC 17027; agar well diffusion),The diameter of inhibitory-zone (H. pylori BCRC 17027; [4]) [mm],MBC [2]
CC[C@H]1OC(=O)[C@H](C)[C@@H](O[C@H]2C[C@@](C)(OC)[C@@H](O)[C@H](C)O2)[C@H](C)[C@@H](O[C@@H]2O[C@H](C)C[C@H](N(C)C)[C@H]2O)[C@](C)(OC)C[C@@H](C)C(=O)[C@H](C)[C@@H](O)[C@]1(C)O [Clarithromycin],0.032,1,0.25,,,,
Cc1ncc([N+](=O)[O-])n1CCO [Metronidazole],64,2560,64,21.8 ± 3.1,inhibition halos smaller than ovatodiolide,,
"C=C1C(=O)OC2/C=C(\C)C[C@H]3C=C(CC/C=C(\C)CC[C@H]12)C(=O)O3 (stereo partly shown) [Ovatodiolide, ovatodiolide]",16,80,,34,,34.4 ± 2.0,80^b μg/mL
